Measurements taken from patent US20240417405A1, “Substituted Spiro Derivatives” (Janssen Pharmaceutica NV, priority 2021, published 2024).

target: T1, menin/MLL (terbium chelate-labeled menin, FITC-MBM1 peptide) (Homo sapiens, UniProt O00255, T541A); test: Menin/MLL homogenous time-resolved fluorescence (HTRF) assay; format: binding; settings: 30 min incubation
T1 construct: Menin (a.a 1-610-6xhis tag)
T1 sequence (O00255 with tags, fused parts or gaps T541A): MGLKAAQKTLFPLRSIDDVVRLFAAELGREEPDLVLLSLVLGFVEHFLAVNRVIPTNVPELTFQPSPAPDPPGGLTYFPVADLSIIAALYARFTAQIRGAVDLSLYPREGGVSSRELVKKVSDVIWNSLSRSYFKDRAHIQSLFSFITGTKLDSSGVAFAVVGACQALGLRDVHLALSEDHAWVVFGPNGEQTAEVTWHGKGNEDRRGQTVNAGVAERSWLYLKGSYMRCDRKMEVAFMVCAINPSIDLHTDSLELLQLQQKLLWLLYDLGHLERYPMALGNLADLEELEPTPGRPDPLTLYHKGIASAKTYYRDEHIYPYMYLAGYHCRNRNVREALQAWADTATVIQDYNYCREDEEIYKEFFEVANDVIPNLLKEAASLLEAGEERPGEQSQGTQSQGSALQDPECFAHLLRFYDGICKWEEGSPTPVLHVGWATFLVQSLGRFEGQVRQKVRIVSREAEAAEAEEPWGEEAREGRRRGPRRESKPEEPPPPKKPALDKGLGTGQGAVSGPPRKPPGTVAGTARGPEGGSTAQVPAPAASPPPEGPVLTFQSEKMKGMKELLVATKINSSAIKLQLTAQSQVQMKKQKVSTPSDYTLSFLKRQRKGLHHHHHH
In short: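 Percent inhibition, calculated from the 520/490 nm HTRF ratio against high and low controls, was fitted for IC50 with a 0.1 nM detection limit. Reactions held 200 pM Tb-menin and 75 nM FITC-MBM1 in pH 7.5 Tris buffer with 0.5% DMSO.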

Compared with `CC(C)C([C@H]1C[C@@H](Nc2ccn(C)n2)C1)N1CC2(CCN(c3ncnnc3Oc3ccc(F)cc3-c3cncnc3C3CC3)C2)C1` (stereo partly drawn) [Compound 194], `CC(C)C([C@H]1C[C@@H](Nc2ccnc(N)n2)C1)N1CC2(CCN(c3ncnnc3Oc3ccc(F)cc3-c3cncnc3C3CC3)C2)C1` (stereo partly drawn) [Compound 434] is 11-fold lower in IC50: 0.9 nM for the first, 0.08 nM for the second. The second is the more potent here.

Going from `CC(C)C(C1CC(O)(c2cnn(C)c2)C1)N1CC2(CCN(c3ncnnc3Oc3ccc(F)cc3-c3cncnc3C3CC3)C2)C1` (stereo not drawn) [Compound 195] to `CC(C)C(C1CC2(CCN2)C1)N1CC2(CCN(c3ncnnc3Oc3ccc(F)cc3-c3cncnc3C3CC3)C2)C1` (stereo not drawn) [Compound 198], the IC50 falls from 1.3 nM to 0.3 nM (4.3-fold).

Going from `CC(=O)N[C@H]1C[C@@H](C(C(C)C)N2CC3(CCN(c4ncnnc4Oc4ccc(F)cc4-c4c[nH]c(=O)nc4C4CC4)C3)C2)C1` (stereo partly drawn) [Compound 196] to `COc1ncc(-c2cc(F)ccc2Oc2nncnc2N2CCC3(C2)CN(C(C(C)C)[C@H]2C[C@@H](NC(C)=O)C2)C3)c(C2CC2)n1` (stereo partly drawn) [Compound 500], the IC50 falls from 13.6 nM to 0.3 nM (45-fold).

First: CC(C)C(C1CCN(CC2COC2)CC1)N1CC2(CCN(c3ncnnc3Oc3ccc(F)cc3-c3ncncc3C3CC3)C2)C1 (stereo not drawn) [Compound 203]
Second: CC(C)C([C@H]1C[C@@H](N2CCC3(COC3)C2)C1)N1CC2(CCN(c3ncnnc3Oc3ccc(F)cc3-c3cncnc3C3CC3)C2)C1 (stereo partly drawn) [Compound 326]
The IC50 of the first is 4-fold higher: 0.8 nM for the first, 0.2 nM for the second.

First: CC(C)C([C@H]1C[C@@H](NC(=O)CCN(C)C)C1)N1CC2(CCN(c3ncnnc3Oc3ccc(F)cc3-c3cncnc3C3CC3)C2)C1 (stereo partly drawn) [Compound 302]
Second: C[C@H]([C@H]1C[C@@H](NC(=O)OC(C)(C)C)C1)N1CC2(CCN(c3ncnnc3Oc3ccc(F)cc3-c3cncnc3C3CC3)C2)C1 [Compound 512a]
The IC50 of the first is 300-fold lower: 0.1 nM for the first, 29.8 nM for the second.

`CC(C)C([C@H]1C[C@@H](N2CCC3(CCO3)CC2)C1)N1CC2(CCN(c3ncnnc3Oc3ccc(F)cc3-c3cncnc3C3CC3)C2)C1` (stereo partly drawn) [Compound 327] and `CC(=O)N1CC2CN([C@H]3C[C@@H]([C@H](C(C)C)N4CC5(CCN(c6ncnnc6Oc6ccc(F)cc6-c6cnc(C)nc6C6CC6)C5)C4)C3)CC2C1` (stereo partly drawn) [Compound 377] are within 1.5-fold of each other in IC50: 0.2 nM for the first, 0.137 nM for the second.

Molecule `C[C@@H]([C@H]1C[C@@H](NC(=O)OC(C)(C)C)C1)N1CC2(CCN(c3ncnnc3Oc3ccc(F)cc3-c3cncnc3C3CC3)C2)C1` [Compound 512b] has an IC50 of 0.589 nM.

tested on: KO-52 cells; test: Proliferation assay, spheroid-like growth, KO-52 (MLL wildtype control cell line); format: cell-based, human; settings: Homo sapiens, 192 h, KO-52 control cells, 8 days, confluence as measure of spheroid size; read-out: spheroid assay_OneTime KO-52 IC50
In short: (§1)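 Seed cells at linear-growth densities in low-attachment wells; add test compound at several concentrations, normalized to 0.3% DMSO; incubate 8 days at 37 °C; image spheroids and measure confluence; calculate absolute IC50 against DMSO and reference-compound controls.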

Going from `CC(C)C([C@H]1C[C@@H](Nc2ccn(C)n2)C1)N1CC2(CCN(c3ncnnc3Oc3ccc(F)cc3-c3cncnc3C3CC3)C2)C1` (stereo partly drawn) [Compound 194] to `CC(C)C([C@H]1C[C@@H](Nc2ccnc(N)n2)C1)N1CC2(CCN(c3ncnnc3Oc3ccc(F)cc3-c3cncnc3C3CC3)C2)C1` (stereo partly drawn) [Compound 434], the IC50 falls from greater than 15000 nM to 2000 nM. The second is the more potent here.

`CC(C)C(C1CC(O)(c2cnn(C)c2)C1)N1CC2(CCN(c3ncnnc3Oc3ccc(F)cc3-c3cncnc3C3CC3)C2)C1` (stereo not drawn) [Compound 195] and `CC(C)C(C1CC2(CCN2)C1)N1CC2(CCN(c3ncnnc3Oc3ccc(F)cc3-c3cncnc3C3CC3)C2)C1` (stereo not drawn) [Compound 198] cannot be ordered by IC50: greater than 15000 nM for the first, greater than 15000 nM for the second.

Compared with `CC(=O)N[C@H]1C[C@@H](C(C(C)C)N2CC3(CCN(c4ncnnc4Oc4ccc(F)cc4-c4c[nH]c(=O)nc4C4CC4)C3)C2)C1` (stereo partly drawn) [Compound 196], `COc1ncc(-c2cc(F)ccc2Oc2nncnc2N2CCC3(C2)CN(C(C(C)C)[C@H]2C[C@@H](NC(C)=O)C2)C3)c(C2CC2)n1` (stereo partly drawn) [Compound 500] is lower in IC50: greater than 15000 nM for the first, 10200 nM for the second. The second is the more potent here.

Compared with `CC(C)C(C1CCN(CC2COC2)CC1)N1CC2(CCN(c3ncnnc3Oc3ccc(F)cc3-c3ncncc3C3CC3)C2)C1` (stereo not drawn) [Compound 203], `CC(C)C([C@H]1C[C@@H](N2CCC3(COC3)C2)C1)N1CC2(CCN(c3ncnnc3Oc3ccc(F)cc3-c3cncnc3C3CC3)C2)C1` (stereo partly drawn) [Compound 326] is 4.9-fold higher in IC50: 1860 nM for the first, 9180 nM for the second.

First: CC(C)C([C@H]1C[C@@H](NC(=O)CCN(C)C)C1)N1CC2(CCN(c3ncnnc3Oc3ccc(F)cc3-c3cncnc3C3CC3)C2)C1 (stereo partly drawn) [Compound 302]
Second: CC(C)C([C@H]1C[C@@H](N2CCC3(CCO3)CC2)C1)N1CC2(CCN(c3ncnnc3Oc3ccc(F)cc3-c3cncnc3C3CC3)C2)C1 (stereo partly drawn) [Compound 327]
The IC50 of the first is lower: 14100 nM for the first, greater than 15000 nM for the second.

With `CC(=O)N1CC2CN([C@H]3C[C@@H]([C@H](C(C)C)N4CC5(CCN(c6ncnnc6Oc6ccc(F)cc6-c6cnc(C)nc6C6CC6)C5)C4)C3)CC2C1` (stereo partly drawn) [Compound 377] the IC50 was 4840 nM.

same assay, conditions: KO-52 control cells, 8 days, confluence as measure of spheroid size; read-out: spheroid assay_OneTime KO-52 IC50

Going from `C[C@H]([C@H]1C[C@@H](NC(=O)OC(C)(C)C)C1)N1CC2(CCN(c3ncnnc3Oc3ccc(F)cc3-c3cncnc3C3CC3)C2)C1` [Compound 512a] to `C[C@@H]([C@H]1C[C@@H](NC(=O)OC(C)(C)C)C1)N1CC2(CCN(c3ncnnc3Oc3ccc(F)cc3-c3cncnc3C3CC3)C2)C1` [Compound 512b], the IC50 rises from 310 nM to 5810 nM (19-fold).

tested on: MOLM14 cells; test: Proliferation assay, spheroid-like growth, MOLM14 (MLL-AF9 rearranged); format: cell-based, human; settings: 8 days, confluence as measure of spheroid size, read-out: spheroid assay_OneTime MOLM14 IC50
In short: as §1

Compared with `CC(=O)N1CC2CN([C@H]3C[C@@H]([C@H](C(C)C)N4CC5(CCN(c6ncnnc6Oc6ccc(F)cc6-c6cnc(C)nc6C6CC6)C5)C4)C3)CC2C1` (stereo partly drawn) [Compound 377], `C[C@H]([C@H]1C[C@@H](NC(=O)OC(C)(C)C)C1)N1CC2(CCN(c3ncnnc3Oc3ccc(F)cc3-c3cncnc3C3CC3)C2)C1` [Compound 512a] is 15-fold higher in IC50: 2.7 nM for the first, 40 nM for the second. The first is the more potent here.

In the case of `C[C@@H]([C@H]1C[C@@H](NC(=O)OC(C)(C)C)C1)N1CC2(CCN(c3ncnnc3Oc3ccc(F)cc3-c3cncnc3C3CC3)C2)C1` [Compound 512b], the IC50 is reported as greater than 940 nM.

same assay, conditions: Homo sapiens, MOLM-14, 192 h, 8 days, confluence as measure of spheroid size, read-out: spheroid assay_OneTime MOLM14 IC50

Going from `CC(C)C([C@H]1C[C@@H](Nc2ccn(C)n2)C1)N1CC2(CCN(c3ncnnc3Oc3ccc(F)cc3-c3cncnc3C3CC3)C2)C1` (stereo partly drawn) [Compound 194] to `CC(C)C([C@H]1C[C@@H](Nc2ccnc(N)n2)C1)N1CC2(CCN(c3ncnnc3Oc3ccc(F)cc3-c3cncnc3C3CC3)C2)C1` (stereo partly drawn) [Compound 434], the IC50 falls from 450 nM to 2.9 nM (160-fold). The second is the more potent here.

Going from `CC(C)C(C1CC(O)(c2cnn(C)c2)C1)N1CC2(CCN(c3ncnnc3Oc3ccc(F)cc3-c3cncnc3C3CC3)C2)C1` (stereo not drawn) [Compound 195] to `CC(C)C(C1CC2(CCN2)C1)N1CC2(CCN(c3ncnnc3Oc3ccc(F)cc3-c3cncnc3C3CC3)C2)C1` (stereo not drawn) [Compound 198], the IC50 falls from 510 nM to 250 nM (2-fold).

Compared with `CC(=O)N[C@H]1C[C@@H](C(C(C)C)N2CC3(CCN(c4ncnnc4Oc4ccc(F)cc4-c4c[nH]c(=O)nc4C4CC4)C3)C2)C1` (stereo partly drawn) [Compound 196], `COc1ncc(-c2cc(F)ccc2Oc2nncnc2N2CCC3(C2)CN(C(C(C)C)[C@H]2C[C@@H](NC(C)=O)C2)C3)c(C2CC2)n1` (stereo partly drawn) [Compound 500] is lower in IC50: greater than 940 nM for the first, 35 nM for the second.

Going from `CC(C)C(C1CCN(CC2COC2)CC1)N1CC2(CCN(c3ncnnc3Oc3ccc(F)cc3-c3ncncc3C3CC3)C2)C1` (stereo not drawn) [Compound 203] to `CC(C)C([C@H]1C[C@@H](N2CCC3(COC3)C2)C1)N1CC2(CCN(c3ncnnc3Oc3ccc(F)cc3-c3cncnc3C3CC3)C2)C1` (stereo partly drawn) [Compound 326], the IC50 falls from 300 nM to 32 nM (9.4-fold). The second is the more potent here.

Compared with `CC(C)C([C@H]1C[C@@H](NC(=O)CCN(C)C)C1)N1CC2(CCN(c3ncnnc3Oc3ccc(F)cc3-c3cncnc3C3CC3)C2)C1` (stereo partly drawn) [Compound 302], `CC(C)C([C@H]1C[C@@H](N2CCC3(CCO3)CC2)C1)N1CC2(CCN(c3ncnnc3Oc3ccc(F)cc3-c3cncnc3C3CC3)C2)C1` (stereo partly drawn) [Compound 327] is 4.2-fold lower in IC50: 21 nM for the first, 5 nM for the second.
